Assay results: PubChem BioAssay (NCI)
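96-well plates; 48 h exposure; 5 concentrations. Endpoints by linear interpolation between flanking doses. Not reached: highest tested concentration assigned. TGI denotes the concentration required for complete inhibition of growth.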

Legend:
Assay in all cases: inhibition of tumour cell growth, NCI panel, 48 h
[1] = system: IGROV1 ovarian
[2] = system: SNB-75 CNS
[3] = system: K-562 leukemia
[4] = system: PC-3 prostate
[5] = system: SK-MEL-5 melanoma
[6] = system: NCI-H522 lung
[7] = system: ACHN renal
[8] = system: NCI-H23 lung
[9] = system: RPMI-8226 leukemia
[10] = system: SNB-19 CNS
[11] = system: UO-31 renal
[12] = system: CCRF-CEM leukemia
[13] = system: SF-539 CNS
[14] = system: HCC-2998 colon
[15] = system: SK-OV-3 ovarian
[16] = system: OVCAR-5 ovarian
[17] = system: HCT-116 colon
[18] = system: DU-145 prostate
[19] = system: MOLT-4 leukemia
[20] = system: SK-MEL-28 melanoma
[21] = system: COLO 205 colon
[22] = system: SF-268 CNS
[23] = system: MDA-MB-435
[24] = system: LOX IMVI melanoma
[25] = system: OVCAR-4 ovarian
[26] = system: EKVX NSCLC
[27] = system: MDA-N
[28] = system: MDA-MB-231 breast
[29] = system: HS 578T breast
[30] = system: HT29 colon
[31] = system: HL-60(TB) leukemia
[32] = system: NCI-H226 lung
[33] = system: SW-620 colon
[34] = system: CAKI-1 renal
[35] = system: A549 NSCLC
[36] = system: SN12C renal
[37] = system: HOP-92 NSCLC
[38] = system: A498 renal
[39] = system: OVCAR-3 ovarian
[40] = system: HOP-62 NSCLC
[41] = system: SF-295 CNS
[42] = system: RXF 393 renal
[43] = system: BT-549 breast
[44] = system: UACC-257 melanoma
[45] = system: NCI/ADR-RES ovarian
[46] = system: UACC-62 melanoma
[47] = system: SK-MEL-2 melanoma
[48] = system: OVCAR-8 ovarian
[49] = system: KM12 colon
[50] = system: MALME-3M melanoma
[51] = system: MCF7 breast
[52] = system: NCI-H460 lung
[53] = system: M14 melanoma
[54] = system: U251 CNS
[55] = system: SR leukemia
[56] = system: 786-0 renal
[57] = system: HCT-15 colon
[58] = system: T-47D breast
[59] = system: TK-10 renal

## CCOC(=O)/C(C#N)=C/c1ccc(SCc2ccco2)c([N+](=O)[O-])c1
[1]
  TGI: > 100 µM
[2]
  TGI: > 100 µM
[3]
  TGI: > 100 µM
[4]
  TGI: > 100 µM
[5]
  TGI: > 100 µM
[6]
  TGI: > 100 µM
[7]
  TGI: > 100 µM
[8]
  TGI: > 100 µM
[9]
  TGI: > 100 µM
[10]
  TGI: > 100 µM
[11]
  TGI: > 100 µM
[12]
  TGI: > 100 µM
[13]
  TGI: > 100 µM
[14]
  TGI: > 100 µM
[15]
  TGI: > 100 µM
[16]
  TGI: > 100 µM
[17]
  TGI: > 100 µM
[18]
  TGI: > 100 µM
[19]
  TGI: > 100 µM
[20]
  TGI: > 100 µM
[21]
  TGI: > 100 µM
[22]
  TGI: > 100 µM
[23]
  TGI: > 100 µM
[24]
  TGI: > 100 µM
[25]
  TGI: > 100 µM
[26]
  TGI: > 100 µM
[27]
  TGI: > 100 µM
[28]
  TGI: > 100 µM
[29]
  TGI: > 100 µM
[30]
  TGI: > 100 µM
[31]
  TGI: > 100 µM
[32]
  TGI: > 100 µM
[33]
  TGI: > 100 µM
[34]
  TGI: > 100 µM
[35]
  TGI: > 100 µM
[36]
  TGI: > 100 µM
[37]
  TGI: > 100 µM
[38]
  TGI: > 100 µM
[39]
  TGI: > 100 µM
[40]
  TGI: > 100 µM
[41]
  TGI: > 100 µM
[42]
  TGI: > 100 µM
[43]
  TGI: > 100 µM
[44]
  TGI: > 100 µM
[45]
  TGI: > 100 µM
[46]
  TGI: > 100 µM
[47]
  TGI: > 100 µM
[48]
  TGI: > 100 µM
[49]
  TGI: > 100 µM
[50]
  TGI: > 100 µM
[51]
  TGI: > 100 µM
[52]
  TGI: > 100 µM
[53]
  TGI: > 100 µM
[54]
  TGI: > 100 µM
[55]
  TGI: > 100 µM
[56]
  TGI: > 100 µM

## CC(=O)c1c2c(cc3c1CC1(C3)Cc3cc4c(c(C(=O)O)c3C1)CCCC4)CCCC2 (centres undefined) (tested in a mixture with another compound)
[1]
  TGI: > 100 µM
[2]
  TGI: > 100 µM
[3]
  TGI: > 100 µM
[4]
  TGI: > 100 µM
[5]
  TGI: 63.7 µM
[6]
  TGI: > 100 µM
[7]
  TGI: > 100 µM
[8]
  TGI: > 100 µM
[9]
  TGI: 89.3 µM
[10]
  TGI: > 100 µM
[11]
  TGI: 40.6 µM
[12]
  TGI: 94.6 µM
[14]
  TGI: 93.6 µM
[15]
  TGI: > 100 µM
[16]
  TGI: > 100 µM
[17]
  TGI: 72.4 µM
[18]
  TGI: > 100 µM
[19]
  TGI: 43.9 µM
[20]
  TGI: > 100 µM
[21]
  TGI: 68.4 µM
[22]
  TGI: > 100 µM
[23]
  TGI: > 100 µM
[24]
  TGI: > 100 µM
[25]
  TGI: > 100 µM
[26]
  TGI: > 100 µM
[27]
  TGI: > 100 µM
[57]
  TGI: > 100 µM
[29]
  TGI: > 100 µM
[30]
  TGI: > 100 µM
[31]
  TGI: 54.9 µM
[33]
  TGI: > 100 µM
[34]
  TGI: > 100 µM
[35]
  TGI: > 100 µM
[36]
  TGI: > 100 µM
[58]
  TGI: > 100 µM
[37]
  TGI: 39.7 µM
[39]
  TGI: 48.7 µM
[40]
  TGI: 44.6 µM
[41]
  TGI: > 100 µM
[44]
  TGI: 74.3 µM
[45]
  TGI: > 100 µM
[46]
  TGI: > 100 µM
[47]
  TGI: 60.5 µM
[48]
  TGI: > 100 µM
[49]
  TGI: 59.7 µM
[50]
  TGI: > 100 µM
[51]
  TGI: > 100 µM
[52]
  TGI: 53.6 µM
[53]
  TGI: 96.2 µM
[54]
  TGI: 72.6 µM
[55]
  TGI: 53.8 µM
[56]
  TGI: > 100 µM
[59]
  TGI: > 100 µM
